Data on nine compounds can be found in paper PMC11769294, “(E)-1-(3-(3-Hydroxy-4-Methoxyphenyl)-1-(3,4,5-Trimethoxyphenyl)allyl)-1H-1,2,4-Triazole and Related Compounds: Their Synthesis and Biological Evaluation as Novel Antimitotic Agents Targeting Breast Cancer” (Pharmaceuticals, 2025).

Structures are written as SMILES. Read-outs that look alike come from different tables or passages of the source.

Assay [1] deals with MCF-7 breast cancer cells. Kind of assay: alamarBlue cell viability assay. It counts as cell-based. The note with it: Homo sapiens. The procedure:
Figure 5 Preliminary cell viability data for Series 1: (A) compounds 22a–22g and chalcone 20b and Series 2: (B) compounds 23a–e and chalcone 20b in MCF-7 breast cancer cells. Cell proliferation of MCF-7 cells was determined with an alamarBlue assay (seeding density 2.5 × 10^4 cells/mL per well for 96-well plates). Compound concentrations of either 1 or 0.1 μM for 72 h were used to treat the cells (in triplicate) with control wells containing vehicle ethanol (1% v/v). The mean value ± SEM for three independent experiments is shown. The positive controls used are CA-4 and phenstatin (1.0 μM and 0.1 μM). Statistical analysis was performed using One-way ANOVA with the Sidak multiple comparison test (***, p < 0.001).
HL-60 cells were suspension cells and the seeding density for the viability assay was 25,000 cells/mL. MCF-7 cells (adherent) were cultured in Minimum Essential Media (MEM) with GlutaMAX™-I, supplemented with 1% (v/v) non-essential amino acids, 10% (v/v) fetal bovine serum (FBS), purchased from BD Biosciences (Edmund Halley Road, Oxford, UK), and 1% (v/v) penicillin/streptomycin 5000 U/mL. The MCF-7 cells used in the screening of the compounds during these experiments were mycoplasma-free. The seeding density of MCF-7 in the viability assay was 25,000 cells/mL and 50,000 cells/mL in the FACS assay. Normal breast cells (MCF-10A) (adherent) were cultured in Dulbecco’s Modified Eagle Medium: Nutrient Mixture F-12 (DMEM/F12; Gibco) supplemented with 5% horse serum (Invitrogen, Waltham, MA, USA), 20 ng/mL epidermal growth factor (Merck Millipore, Burlington, MA, USA), 0.5 μg/mL hydrocortisone (Sigma, Kanagawa, Japan), 100 ng/mL cholera toxin (Sigma), 10 μg/mL insulin (Sigma), and penicillin/streptomycin 5000 U/mL (1%) (Gibco, Waltham, MA, USA). […] MDA-MB-231 cells were cultured in Dulbecco’s Modified Eagle Medium, which was supplemented with 10% (v/v) fetal bovine serum (FBS) and 1% (v/v) penicillin/streptomycin 5000 U/mL. When not in use, all cells were kept in liquid nitrogen and frozen in a freezing media made of 90% FBS and 10% DMSO. All cells were grown in an atmosphere of 5% CO2/95% air in T75 culture flasks. The media was changed every 2–3 days and media was always prewarmed to 37 °C. All were sub-cultured every 3–4 days by trypsinization using TrypLE™ Express enzyme when confluence was reached to allow growth, prevent excessive cell death, and minimize the risk of infections derived by over-confluence. For the cell viability assay, the number of cells per milliliter was 25,000 cells/mL while the FACS assay utilized 50,000 cells/mL. Cells were maintained at 37 °C in 5% CO2 in a humidified incubator.
The biochemical assays were performed in triplicate and on at least three independent occasions to facilitate the determination of mean values. For the viability assay, cells were grown until 80% confluent. Adherent cells such as MCF-7, MDA-MB-231, and MCF-10A were trypsinized to detach them from the flask, counted as previously described, and seeded in 96 well plates with a seeding density of 25,000 cells /mL (200 µL of suspension in each well so that the final number of cells per well was 5000) and 1 × 10^4 cells/well seeding density for suspension HL-60 cells. Adherent cells were incubated for 24 h after being seeded in the 96 well plate and treated on the following day, while suspension cells were treated on the same day of the seeding. In both cases, the incubation time after the treatment with the drug was 72 h. After 68 h incubation, the AlamarBlue was added (20 µL in each well) and the incubation time was completed. After 72 h, the change in color was measured by spectrofluorimetry at an excitation wavelength of 544 nm and emission wavelength of 590 nm. AlamarBlue is a cell viability indicator containing a compound called resazurin. AlamarBlue is water soluble, stable in culture media, non-toxic, and is permeable through the cell membrane. […]

For assay [2], the system named is MCF-7 breast cancer cells. The note with it: cited from earlier work.
Another assay relates to HL-60 cells. The note with it: reported values; cited from earlier work.
Assay [3] concerns MDA-MB-231 breast cancer cells. The note with it: reported values; cited from earlier work.
The test system of assay [4] is K562 human chronic myelogenous leukemia cell line. The arrangement: method as in PMID 19837593. The note with it: cited from earlier work.
Assay [5] deals with tubulin in MCF-7 breast cancer cells. Kind of assay: Immunofluorescence confocal microscopy of microtubules. It counts as cell-based, human. The conditions noted are these: 16 h, 22b 10 μM, paclitaxel and phenstatin 1 μM. The procedure:
Briefly, the MCF-7 cells were seeded at a density of 1 × 10^5 cells/mL on eight chamber glass slides (BD Biosciences). […] The cells were then washed in PBS, fixed for 20 min with 4% paraformaldehyde in PBS, and permeabilized in 0.5% Triton X-100. […] Images of the cells were obtained using Leica SP8 confocal microscopy (Wetzlar, Germany) with Leica application suite X software (Wetzlar, Germany). Experiments were performed on three independent occasions.
The micrograph images were obtained with Leica SP8 confocal microscopy utilizing Leica application suite X software. Representative confocal images of three separate experiments are shown. The scale bar indicates 25 μm.

The test system of the next assay is MCF-7 cells. Further details: method as in PMID 33671674. The conditions noted are these: 1 μM, cited from earlier work.
Assay [6] relates to MCF-7 breast cancer cells. Further details: method as in PMID 33671674. The conditions noted are these: cited from earlier work.
For assay [7], the system named is MDA-MB-231 breast cancer cells. The arrangement: method as in PMID 33671674. The note with it: cited from earlier work.
Assay [8] relates to purified bovine brain tubulin. The arrangement: method as in PMID 33671674. The conditions noted are these: 10 μM; cited from earlier work.
Setting [9] is: MCF7, MCF-7, 1 μM, 72 h, read-out: viable cells.

On to `COc1ccc(/C=C\c2cc(OC)c(OC)c(OC)c2)cc1O` [CA-4, combretastatin CA-4], for which the viability at 1 µM in assay [1] (setting [9]) amounted to 24%. Moreover, the IC50 (commonly the point on the concentration scale where inhibition reaches its midpoint) in assay [2] was 4 nM; in assay [2] (reported values) it was 3.9 ± 0.32 nM; in the assay with HL-60 cells it was 1.9 ± 0.5 nM; in assay [3], 43 nM.

Take `COc1ccc(/C=C(\C)C(=O)c2cc(OC)c(OC)c(OC)c2)cc1O` [Compound 16a]: in [4], the IC50 is 0.21 nM.

The compound `COc1ccc(/C=C/C(=O)c2cc(OC)c(OC)c(OC)c2)cc1O` [Compound 20b, (E)-3-(3-hydroxy-4-methoxyphenyl)-1-(3,4,5-trimethoxyphenyl)prop-2-en-1-one, reference compound] registered an IC50 in assay [1] (MCF7, MCF-7, 72 h) of 67 ± 17 nM.

With `COc1cc(/C=C/C(c2cc(OC)c(OC)c(OC)c2)n2cncn2)cc(OC)c1OC` (stereo not shown) [Compound 22c, (E)-1-(1,3-Bis(3,4,5-trimethoxyphenyl)allyl)-1H-1,2,4-triazole], the viability at 1 µM in assay [1] (setting [9]) came out at 70%.

For the compound `COc1ccc(/C=C/C(c2cc(OC)c(OC)c(OC)c2)n2cncn2)cc1OC` (stereo not shown) [Compound 22d, (E)-1-(3-(3,4-Dimethoxyphenyl)-1-(3,4,5-trimethoxyphenyl)allyl)-1H-1,2,4-triazole], the viability at 1 µM in [1] (setting [9]) turned out to be 74%.

As to `COc1ccc(C2CC(=O)c3cc(OC)c(OC)c(OC)c32)cc1O` (stereo not shown) [Compound 24a, 3-(3-Hydroxy-4-methoxyphenyl)-4,5,6-trimethoxy-2,3-dihydro-1H-inden-1-one, reference compound], the viability at 0.1 µM in [1] (MCF7, MCF-7, 0.1 μM, 72 h, read-out: viable cells) came to 70%. In assay [1] (setting [9]), the viability at 1 µM worked out at 35%.

Take `C(=C\C(c1ccncc1)n1ccnc1)/c1c2ccccc2cc2ccccc12` (stereo not shown) [Compound 33b, (E)-4-(3-(Anthracen-9-yl)-1-(1H-imidazol-1-yl)allyl)pyridine]: in assay [1] (setting [9]), the viability at 1 µM was found to be 92%.

In the case of `CC(=O)O[C@H]1C(=O)[C@@]2(C)[C@H]([C@H](OC(=O)c3ccccc3)[C@]3(O)C[C@H](OC(=O)[C@H](O)[C@@H](NC(=O)c4ccccc4)c4ccccc4)C(C)=C1C3(C)C)[C@]1(OC(C)=O)CO[C@@H]1C[C@@H]2O` [paclitaxel], in [5], the “effect on microtubule network” value was “hyperpolymerization of tubulin”.

With `COc1ccc(C(=O)c2cc(OC)c(OC)c(OC)c2)cc1O` [phenstatin], in assay [1] (MCF7, 72 h, read-out: viable cells), the viability at 1 µM came to 30%. For the same compound, the “effect on microtubule network” value in [5] is recorded as “depolymerization of tubulin”. In addition, the IC50 in assay [2] is 34 nM. The “cells in G2/M phase” value in the assay on MCF-7 cells (24 h) was 65%; in the assay on MCF-7 cells (48 h), 57%; in the assay with MCF-7 cells (72 h) it was 51%. For the same compound, in the assay with MCF-7 cells (72 h), the “cells in apoptosis (sub-G1)” value was 18%. Further, the total apoptosis was 36.1% in assay [6] (0.1 μM), 46% in [6] (0.5 μM), 16.6% in assay [7] (0.1 μM) and 17.9% in [7] (0.5 μM). Also, the “reduction in the polymer mass vs vehicle” value in assay [8] is recorded as 10 fold.
